Test results as given in article PMC3792137, “NMK-TD-100, a Novel Microtubule Modulating Agent, Blocks Mitosis and Induces Apoptosis in HeLa Cells by Binding to Tubulin” (PLoS ONE, 2013).

Target: T1, tubulin (alpha/beta heterodimer)
T1 construct: tubulin purified from goat brain; with alpha-tubulin/beta-tubulin heterodimer
Experiment: Ligand fluorescence enhancement titration (Scatchard, Job plot […]); tryptophan quenching gave Kd […]; polymerization IC50 […]
Format: binding, Capra hircus

Kd: 1260 ± 320 nM
SMILES: COc1cc(-c2nnc(-c3c[nH]c4ccccc34)s2)cc(OC)c1OC [NMK-TD-100]
